Measured values reported in patent US7504430B2, “Maleiimide anti-tumor phosphatase inhibitors” (The United States of America as represented by the …, priority 2004, dated 2009).
Read-outs that look alike come from different tables or passages of the source. Each block holds one compound with its values, some of them ahead of it.

Legend:
Hep3B cells = assay: Hep3B cell growth inhibition (Hoechst 33258 DNA fluorescence, 3 days of treatment); format: cell-based, human; conditions: for Potency at Hep3B cell growth inhibition compared with Cpd5: versus Cpd5 (2-(2-mercaptoethanol)-3-methyl-1,4-naphthoquinone); for Inhibition of Hep3B cell growth: even at 10 μM
Experimental: Hep3B or JM-1 hepatoma cells were grown in tissue culture in MEM medium supplemented with 10% fetal bovine serum. Cells were plated at a density of 1×104. […] Culture medium was replaced every day with new medium containing the inhibitor. After 3 days of treatment, the cells were rinsed once with PBS and frozen at −80° C. until counting. Frozen cells were thawed and incubated with the DNA-staining dye Hoescht 33258. The cell numbers were determined by measuring the dye-bound DNA fluorescence by a fluorescent plate reader.
(§1) IC50 was determined from the growth inhibition curves.

[1] = system: primary cultures of normal hepatocytes; assay: DNA synthesis in primary cultures of normal hepatocytes versus Hep3B hepatoma cells; format: cell-based
EGFR and ERK1/2 = assay: Tyrosine phosphorylation of EGFR and ERK1/2; format: cell-based
PYP1B = molecular target: T1, PYP1B (Homo sapiens, UniProt P18031); assay: Phosphatase inhibition, PYP1B; format: biochemical
T1 sequence (P18031 1-435): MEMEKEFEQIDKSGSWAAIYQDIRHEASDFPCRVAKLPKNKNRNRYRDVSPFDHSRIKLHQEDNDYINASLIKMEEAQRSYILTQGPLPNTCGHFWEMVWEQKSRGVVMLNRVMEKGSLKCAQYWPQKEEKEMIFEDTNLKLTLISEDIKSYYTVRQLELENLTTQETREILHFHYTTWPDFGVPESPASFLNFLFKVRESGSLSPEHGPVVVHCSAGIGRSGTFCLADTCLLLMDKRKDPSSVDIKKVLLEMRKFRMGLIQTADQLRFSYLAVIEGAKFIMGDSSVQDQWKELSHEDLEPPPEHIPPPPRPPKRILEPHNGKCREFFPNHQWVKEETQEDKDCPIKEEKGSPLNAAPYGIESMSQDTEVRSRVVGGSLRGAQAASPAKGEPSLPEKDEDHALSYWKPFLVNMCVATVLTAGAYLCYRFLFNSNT

LS180 = assay: Tumor cell line growth inhibition, LS180; format: cell-based; conditions: Homo sapiens, 72 h; Colon, LS180, cultured for 3 days; maximum concentration 20 μmol/L
Experimental: as §1

MCF7 = assay: Tumor cell line growth inhibition, MCF7; format: cell-based; conditions: Homo sapiens, 72 h; Breast, MCF7, cultured for 3 days; maximum concentration 20 μmol/L
Experimental: as §1

SKBR3 = assay: Tumor cell line growth inhibition, SKBR3; format: cell-based; conditions: Homo sapiens, SK-BR-3, 72 h; Breast, SKBR3, cultured for 3 days; maximum concentration 20 μmol/L
Experimental: as §1

HR = assay: Tumor cell line growth inhibition, HR; format: cell-based; conditions: Homo sapiens, 72 h, Stomach, cultured for 3 days, maximum concentration 20 μmol/L
Experimental: as §1

JM-1 rat hepatoma cells = assay: Orthotopic rat tumor model, JM-1 hepatoma cells seeded into livers of F344 rats; format: in vivo; conditions: 1 mg/kg intraperitoneal, every other day, 5 injections, control rats averaged 11 tumors per liver
Experimental: JM-1 rat hepatoma cells were seeded into livers of F344 rats. […] The control rats had on the average 11 tumors per liver, whereas the PM-20-treated rats had 2 tumors per rat.

FemX = assay: Tumor cell line growth inhibition, FemX; format: cell-based; conditions: Homo sapiens, Fem-X, 72 h, Skin, cultured for 3 days, maximum concentration 20 μmol/L
Experimental: as §1

[2] = molecular target: T2, catalytic domain of Cdc25B (Homo sapiens, UniProt P30305); assay: Binding to the catalytic domain of Cdc25B
T2 sequence (P30305 431-538 limits assumed): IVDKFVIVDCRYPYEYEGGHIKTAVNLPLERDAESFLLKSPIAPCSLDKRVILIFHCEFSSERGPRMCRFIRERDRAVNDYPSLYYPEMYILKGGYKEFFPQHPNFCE

cell cycle = assay: Cell cycle analysis; format: cell-based; conditions: with upregulation of tyrosine phosphorylation of Cdk1, 2 and 4
CD45 = molecular target: T3, CD45 (Homo sapiens, UniProt P08575); assay: Phosphatase inhibition, CD45; format: biochemical
T3 sequence (P08575 26-1306): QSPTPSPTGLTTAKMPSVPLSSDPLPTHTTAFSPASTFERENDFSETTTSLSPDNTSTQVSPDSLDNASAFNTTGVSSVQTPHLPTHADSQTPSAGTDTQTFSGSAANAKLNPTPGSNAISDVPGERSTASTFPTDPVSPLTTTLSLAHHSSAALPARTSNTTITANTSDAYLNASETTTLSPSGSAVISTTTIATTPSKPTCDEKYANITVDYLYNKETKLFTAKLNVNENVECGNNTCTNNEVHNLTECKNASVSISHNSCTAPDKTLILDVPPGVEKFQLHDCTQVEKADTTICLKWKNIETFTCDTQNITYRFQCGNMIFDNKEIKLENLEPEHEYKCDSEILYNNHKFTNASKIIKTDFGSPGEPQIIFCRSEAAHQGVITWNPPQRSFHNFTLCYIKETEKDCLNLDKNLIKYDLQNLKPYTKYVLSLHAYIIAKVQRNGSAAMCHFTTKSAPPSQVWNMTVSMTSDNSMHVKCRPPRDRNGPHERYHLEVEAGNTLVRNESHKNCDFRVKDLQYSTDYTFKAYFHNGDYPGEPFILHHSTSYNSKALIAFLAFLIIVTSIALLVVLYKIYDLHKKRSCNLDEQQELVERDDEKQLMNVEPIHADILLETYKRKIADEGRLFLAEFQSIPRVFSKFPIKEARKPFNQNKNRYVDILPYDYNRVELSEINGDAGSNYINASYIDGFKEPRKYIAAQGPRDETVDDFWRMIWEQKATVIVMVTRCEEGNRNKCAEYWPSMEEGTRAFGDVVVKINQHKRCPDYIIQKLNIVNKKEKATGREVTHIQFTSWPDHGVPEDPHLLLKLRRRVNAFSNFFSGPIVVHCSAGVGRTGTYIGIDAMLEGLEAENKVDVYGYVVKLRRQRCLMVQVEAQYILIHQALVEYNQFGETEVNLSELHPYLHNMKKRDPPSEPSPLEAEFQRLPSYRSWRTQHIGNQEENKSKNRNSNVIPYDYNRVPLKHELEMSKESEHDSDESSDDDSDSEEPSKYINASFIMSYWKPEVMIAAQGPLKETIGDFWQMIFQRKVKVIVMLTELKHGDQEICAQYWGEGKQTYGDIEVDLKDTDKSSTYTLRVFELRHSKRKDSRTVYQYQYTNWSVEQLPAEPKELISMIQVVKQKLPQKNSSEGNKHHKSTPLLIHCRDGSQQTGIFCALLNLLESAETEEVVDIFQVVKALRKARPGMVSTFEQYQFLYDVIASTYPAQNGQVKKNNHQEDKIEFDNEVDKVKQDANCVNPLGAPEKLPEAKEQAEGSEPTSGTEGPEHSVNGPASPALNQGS

MKP1 = molecular target: T4, MKP1 (Homo sapiens, UniProt P28562); assay: Phosphatase inhibition, MKP1; format: biochemical
T4 sequence (P28562 1-367): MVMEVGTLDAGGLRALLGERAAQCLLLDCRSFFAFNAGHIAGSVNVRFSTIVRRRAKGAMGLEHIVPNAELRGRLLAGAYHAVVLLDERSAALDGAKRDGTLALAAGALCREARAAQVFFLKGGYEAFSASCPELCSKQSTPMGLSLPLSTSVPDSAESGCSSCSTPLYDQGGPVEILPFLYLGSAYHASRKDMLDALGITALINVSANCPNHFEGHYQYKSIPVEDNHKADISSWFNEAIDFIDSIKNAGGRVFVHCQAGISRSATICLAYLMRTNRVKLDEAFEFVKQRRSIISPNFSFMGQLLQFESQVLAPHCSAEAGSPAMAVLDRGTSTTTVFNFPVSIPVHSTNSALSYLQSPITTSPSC

PCI = assay: Tumor cell line growth inhibition, PCI; format: cell-based; conditions: Homo sapiens, 72 h, Tongue, cultured for 3 days, maximum concentration 20 μmol/L
Experimental: as §1

[3] = orally in mice; cited from earlier work
[4] = Homo sapiens, 72 h, Hep3B cells, 3 days of treatment, read-out: IC50, Hep3B cell growth inhibition
[5] = Homo sapiens, 72 h, Liver, Hep3B, cultured for 3 days, maximum concentration 20 μmol/L, read-out: IC50

IC50 (Hep3B cells; [4]): 6 µM
Structure (SMILES): COc1ccc(N2C(=O)C(SCCO)=C(SCCO)C2=O)cc1 [PM-14, 3,4-bisthiolethanol-1-p-methoxyphenyl maleiimide]

Concentration needed to inhibit DNA synthesis, normal hepatocytes versus Hep3B [1]: 10 fold
Activity against PYP1B (PYP1B): essentially no activity
IC50 (LS180): > 20 µM
IC50 (MCF7): 4 µM
IC50 (SKBR3): 6 µM
IC50 (HR): 6 µM
IC50 (FemX): 2.5 µM
Binding to the catalytic domain of Cdc25B [2]: binds to the catalytic domain of Cdc25B
IC50 (Hep3B cells; [4]): 0.7 µM
IC50 (Hep3B cells; [5]): 0.7 µM
Activity against CD45 (CD45): essentially no activity
IC50 (MKP1): 75 µM
IC50 (PCI): 2.5 µM
Structure (SMILES): O=C1C(SCCO)=C(SCCO)C(=O)N1c1ccc(-c2ccccc2)cc1 [PM-20, N-Biphenyl-4-yl-3,4-bis-(2-hydroxy-ethylsulfanyl)-maleimide]
Inhibition of de-phosphorylation of ERK 1/2 (EGFR and ERK1/2): potent inhibitor
Tyrosine phosphorylation of EGFR and ERK1/2 (EGFR and ERK1/2): appear to induce tyrosine phosphorylation
Number of tumors (JM-1 rat hepatoma cells): 2 tumors per rat
Potency at Hep3B cell growth inhibition compared with Cpd5 (Hep3B cells): more potent inhibitors than Cpd5
Cell cycle effect (cell cycle): block, mainly in the G1 phase of cell cycle

IC50 (LS180): > 20 µM
IC50 (MCF7): > 20 µM
IC50 (SKBR3): > 20 µM
IC50 (HR): > 20 µM
IC50 (FemX): > 20 µM
IC50 (Hep3B cells; [5]): > 20 µM
IC50 (PCI): > 20 µM
Structure (SMILES): CC(=O)Nc1ccc(N2C(=O)C(SCCO)=C(SCCO)C2=O)cc1 [PM-26, N-{4-[3,4-Bis-(2-hydroxy-ethylsulfanyl)-2,5-dioxo-2,5-dihydro-pyrrol-1-yl]-phenyl}-acetamide]
Inhibition of Hep3B cell growth (Hep3B cells): did not inhibit

Structure (SMILES): CCOc1ccc(N2C(=O)C(SCCO)=C(SCCO)C2=O)cc1 [PM-28, 3,4-Bis-(2-hydroxy-ethylsulfanyl)-1-(4-ethoxyphenyl)-pyrrole-2,5-dione]
Potency at Hep3B cell growth inhibition compared with Cpd5 (Hep3B cells): more potent inhibitors than Cpd5

Structure (SMILES): CCCOc1ccc(N2C(=O)C(SCCO)=C(SCCO)C2=O)cc1 [PM-30, 3,4-Bis-(2-hydroxy-ethylsulfanyl)-1-(4-propoxyphenyl)-pyrrole-2,5-dione]
Potency at Hep3B cell growth inhibition compared with Cpd5 (Hep3B cells): more potent inhibitors than Cpd5

Structure (SMILES): O=C1C(SCCO)=C(SCCO)C(=O)N1c1ccc2ccccc2c1 [PM-34, 3,4-Bis-(2-hydroxy-ethylsulfanyl)-1-naphthalen-2-yl-maleimide]
Potency at Hep3B cell growth inhibition compared with Cpd5 (Hep3B cells): more potent inhibitors than Cpd5

Structure (SMILES): O=C1C(SCCO)=C(SCCO)C(=O)N1c1ccc(OCc2ccccc2)cc1 [PM-38, 1-(4-Benzyloxy-phenyl)-3,4-bis-(2-hydroxy-ethylsulfanyl)-pyrrole-2,5-dione]
Inhibition of Hep3B cell growth (Hep3B cells): did not inhibit

IC50 (Hep3B cells; [4]): ~0.1 µM
Structure (SMILES): O=C1C(SCCO)=C(SCCO)C(=O)N1c1ccc(-c2ccc([N+](=O)[O-])cc2)cc1 [PM-42, 1-(4′-nitro-biphenyl-4-yl)-3,4-bis-(2-hydroxy-ethylsulfanyl)-pyrrole-2,5-dione]

IC50 (Hep3B cells; Hep3B cells, 3 days of treatment, read-out: IC50, Hep3B cell growth inhibition): 30 µM
Structure (SMILES): O=C1C(SCCO)=C(SCCO)C(=O)N1c1ccccc1 [PM-I]

Structure (SMILES): N#CC(=C(/N)Sc1ccccc1N)/C(C#N)=C(\N)Sc1ccccc1N [U0126, reference compound]
Effect on the growth inhibitory effect of PM-20 (Hep3B cells; MEK1/2 inhibitor given with PM-20, inhibition of ERK1/2 phosphorylation): antagonized the growth inhibitory effect of PM-20

Structure (SMILES): CC1=CC(=O)c2ccccc2C1=O [Vitamin K3]
LC50 [3]: 0.5 g/kg
